We go through eight compounds from PubChem BioAssay AID651786 (The Scripps Research Institute Molecular Screening Center, 2012).

The term IC50 denotes the concentration at which inhibition is half-maximal.

SMILES strings stand for the structures. The source made the active and inactive calls.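 The calls were made as follows: active = IC50 at or below 10 µM; inactive = IC50 above 10 µM.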

This assay deals with Nuclear receptor coactivator 1 (Homo sapiens) (UniProt Q15788). Description: inhibition of GAL4-SRC1 reporter transcription – cell-based, HEK293, GAL4-SRC1 luciferase, powder samples, selectivity assay for SRC3 inhibitor project, late-stage follow-up (AID 651786). Particulars: luminescence.
Sequence of Nuclear receptor coactivator 1 (Homo sapiens) (Q15788 whole entry, looked up, the tested form may be a part): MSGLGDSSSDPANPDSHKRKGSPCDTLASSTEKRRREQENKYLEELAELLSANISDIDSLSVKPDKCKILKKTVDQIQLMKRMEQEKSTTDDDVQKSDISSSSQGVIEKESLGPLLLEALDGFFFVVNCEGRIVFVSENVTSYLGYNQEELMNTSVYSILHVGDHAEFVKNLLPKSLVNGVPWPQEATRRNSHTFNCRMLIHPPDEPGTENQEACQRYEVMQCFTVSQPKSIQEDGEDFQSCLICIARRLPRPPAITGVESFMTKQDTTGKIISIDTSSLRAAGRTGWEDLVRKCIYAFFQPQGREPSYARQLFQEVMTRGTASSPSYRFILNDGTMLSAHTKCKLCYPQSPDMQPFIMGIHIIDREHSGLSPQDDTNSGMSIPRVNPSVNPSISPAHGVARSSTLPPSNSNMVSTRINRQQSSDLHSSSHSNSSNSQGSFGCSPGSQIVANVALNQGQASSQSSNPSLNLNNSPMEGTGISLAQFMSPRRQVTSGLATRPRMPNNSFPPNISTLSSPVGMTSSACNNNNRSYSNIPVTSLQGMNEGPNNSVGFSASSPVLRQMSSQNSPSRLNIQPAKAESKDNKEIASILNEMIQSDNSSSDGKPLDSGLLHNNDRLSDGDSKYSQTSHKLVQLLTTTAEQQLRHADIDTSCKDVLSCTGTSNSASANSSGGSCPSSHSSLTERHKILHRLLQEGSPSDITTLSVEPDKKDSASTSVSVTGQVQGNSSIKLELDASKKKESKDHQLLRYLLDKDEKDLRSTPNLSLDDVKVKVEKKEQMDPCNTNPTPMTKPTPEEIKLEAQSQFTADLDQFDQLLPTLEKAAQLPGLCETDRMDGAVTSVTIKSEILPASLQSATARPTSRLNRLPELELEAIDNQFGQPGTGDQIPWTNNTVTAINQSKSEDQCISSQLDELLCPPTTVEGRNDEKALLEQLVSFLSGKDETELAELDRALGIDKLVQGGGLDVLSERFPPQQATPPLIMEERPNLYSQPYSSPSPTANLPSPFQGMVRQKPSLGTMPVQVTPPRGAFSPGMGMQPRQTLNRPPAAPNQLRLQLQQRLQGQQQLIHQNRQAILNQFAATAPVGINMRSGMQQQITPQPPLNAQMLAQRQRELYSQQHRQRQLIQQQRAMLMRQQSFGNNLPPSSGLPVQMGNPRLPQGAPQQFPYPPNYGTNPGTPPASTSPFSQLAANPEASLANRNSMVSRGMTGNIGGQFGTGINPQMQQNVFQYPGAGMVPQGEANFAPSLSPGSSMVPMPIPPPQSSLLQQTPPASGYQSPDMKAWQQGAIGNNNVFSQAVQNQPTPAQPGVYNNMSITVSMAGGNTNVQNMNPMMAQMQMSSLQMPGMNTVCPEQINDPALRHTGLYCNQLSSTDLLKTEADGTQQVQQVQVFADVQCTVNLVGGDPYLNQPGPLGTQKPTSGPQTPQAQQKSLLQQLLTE
In the case of `CN1C(=O)C2(C(C#N)=C(N)N(c3cc(Cl)cc(Cl)c3)C3=C2C(=O)CCC3)c2ccccc21` (stereo not drawn), the IC50 was > 35.9 µM (inactive).

On to `CN1C(=O)C2(C(C#N)=C(N)N(c3cc(Cl)cc(Cl)c3)C3=C2C(=O)CC(C)(C)C3)c2ccccc21` (stereo not drawn), for which the IC50 is > 35.9 µM (inactive).

With `OCCN1CCN(C(=S)c2ccc(-c3ccccc3)cc2)CC1`, the half-maximal inhibitory concentration (IC50) is 3.01 µM.

Consider `CC(C)(C)c1ccc(-c2noc(CCC(=O)Nc3cccnc3)n2)cc1`, for which the IC50 is > 35.9 µM (inactive).

Turning to `O=C(COC(=O)c1ccc[nH]c1=O)Nc1ccc(N2CCCCC2)cc1`, the IC50 was > 35.9 µM (inactive).

In the case of `O=C(Nc1ccccc1Oc1ccccc1)c1cc([N+](=O)[O-])ccc1Cl`, the concentration for half-maximal inhibition (IC50) is 6.87 µM.

With `CCCNC(=O)c1nnsc1S(=O)(=O)c1ccc(Cl)cc1`, the IC50 is 6.16 µM.

In the case of `Cc1ccc(OCC(=O)c2cc(C)n(-c3ccccc3)c2C)c([N+](=O)[O-])n1`, the IC50 result is “inactive”.
